Like-named read-outs stand apart in the source and are kept apart here.
Tests used:
[1] = molecular target: B. fragilis CfiA metallo-β-lactamase (Bacteroides fragilis, UniProt P25910); experiment: I50 screen, nitrocefin reporter substrate, CfiA metallo-β-lactamase; format: biochemical; settings: 25 mM PIPES pH 7, 37° C., nitrocefin 91 μM, 5 minute preincubation, Zn2+ 100 μM; enumerated Examples; read-out: I50 values against B. fragilis CfiA metallo-β-lactamase
Method: The inhibitory activity of the compounds of the invention was measured in 25 mM PIPES pH 7 buffer at 10 concentrations (1000, 333, 111, 37, 12.3, 4.1, 1.4, 0.46, 0.15 and 0.05 μM) at 37° C. using nitrocefin (91 μM final concentration) as the reporter substrate. The assays were performed with a 5 minute preincubation of enzyme and inhibitor and were conducted in the presence of added zinc sulphate (Zn^2+ 100 μM, final concentration). the methodology is described in detail in the following references: Payne et al (1991), J. Antimicrob. Chemother., 28:255; Payne et al (1994), Antimicrob. Agents and Chemother., 38:767.

[2] = tested on: Bacteroides fragis 262 strain, which produces CfiA metallo-β-lactamase; experiment: Antibacterial activity (MIC) in combination with meropenem; format: cell-based, Bacteroides fragilis
Source text: Antibacterial activity of compounds of the invention in combination with the carbapenem antibiotic, meropenem, against the Bacteroides fragis 262 strain, which produces CfiA metallo-β-lactamase:
[MIC=minimum inhibitory concentration (μg/ml)]

[3] = read-out: MIC (μg/ml) of compound alone

Sequence of B. fragilis CfiA metallo-β-lactamase (P25910 19-249): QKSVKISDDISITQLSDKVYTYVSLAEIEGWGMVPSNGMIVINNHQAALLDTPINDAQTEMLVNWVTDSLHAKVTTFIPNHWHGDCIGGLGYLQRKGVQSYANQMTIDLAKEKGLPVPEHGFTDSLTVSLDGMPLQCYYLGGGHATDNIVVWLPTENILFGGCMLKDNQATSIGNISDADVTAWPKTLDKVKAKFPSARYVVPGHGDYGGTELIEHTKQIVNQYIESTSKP

Row | IC50 [1] [nM] | SMILES | MIC [2, 3] [µg/mL] | MIC ([2]; read-out: MIC (μg/ml) of meropenem alone) [µg/mL]
1 | < 1000 | O=C(O)c1ccc(CCC(CS)C(=O)N[C@@H](C(=O)O)c2ccccc2)cc1 (single isomer, unassigned) [46 (Isomer A), N-[2'-(Mercaptomethyl)-4'-(4"-hydroxycarbonyl)phenylbutanoyl]-D-phenylglycine] | – | –
2 | < 1000 | O=C(N[C@@H](C(=O)O)c1ccccc1)C(CS)CCc1ccc2nc(C(F)(F)F)ccc2c1 (single isomer, unassigned) [47 (Isomer B), N-[2'-(Mercaptomethyl)-4'-(2"-trifluoromethylquinolin-6"-yl)butanoyl]-D-phenylglycine] | – | –
3 | – | CC(S)C(Cc1ccccc1)C(=O)N[C@@H](C(=O)O)c1ccccc1 (single isomer, unassigned) [Example 50 (all isomers), N-[2'-Benzyl-3'-mercaptobutanoyl]-D-phenylglycine] | > 128 | –
4 | < 1000 | O=C(N[C@@H](Cc1c[nH]c2ccccc12)C(=O)O)C(CS)Cc1ccccc1 (stereo partly drawn) [5d), N-[2'-Benzyl-3'-mercaptopropionyl]tryptophan] | – | –
5 | < 1000 | O=C(N[C@H](Cc1c[nH]c2ccccc12)C(=O)O)C(CS)Cc1ccccc1 (stereo partly drawn) [5e), N-[2'-Benzyl-3'-mercaptopropionyl]-D-tryptophan] | – | –
6 | < 1000 | O=C(N[C@@H](C(=O)O)c1ccccc1)[C@@H](CS)Cc1ccccc1 [9i), [2'S]-N-[2'-Benzyl-3'-mercaptopropionyl]-D-phenylglycine] | – | –
7 | < 1000 | O=C(N[C@@H](C(=O)O)c1ccccc1)[C@@H](CS)CCCCCc1ccccc1 [40f), N-[(S)-2'-Mercaptomethyl-7'-phenylheptanoyl]-D-phenylglycine] | – | –
8 | < 1000 | O=C(NC(C(=O)O)c1ccccc1)C(CS)Cc1ccccc1 (stereo not drawn) [Example 9e), N-[2'-Benzyl-3'-mercaptopropionyl]phenylglycine] | – | –
9 | < 1000 | O=C(N[C@@H](C(=O)O)c1ccc(O)c(O)c1)C(CS)Cc1ccccc1 (stereo partly drawn) [Example 15, N-[2'-Benzyl-3'-mercaptopropionyl]-3,4-dihydroxy-D-phenylglycine] | – | –
10 | < 1000 | O=C(N[C@@H](C(=O)O)c1ccc(F)cc1)C(CS)Cc1ccccc1 (stereo partly drawn) [Example 16, N-[2'-Benzyl-3'-mercaptopropionyl]-4-fluoro-D-phenylglycine] | – | –
11 | < 1000 | O=C(NC(C(=O)O)c1cccc(F)c1)C(CS)Cc1ccccc1 (stereo not drawn) [Example 17, N-[2'-Benzyl-3'-mercaptopropionyl]-3-fluorophenylglycine] | – | –
12 | < 1000 | O=C(N[C@@H](C(=O)O)c1cccc([N+](=O)[O-])c1)C(CS)Cc1ccccc1 (stereo partly drawn) [Example 18, N-[2'-Benzyl-3'-mercaptopropionyl]-3-nitro-D-phenylglycine] | – | –
13 | < 1000 | O=C(NC(C(=O)O)c1cccs1)C(CS)Cc1ccccc1 (stereo not drawn) [Example 20, N-[2'-Benzyl-3'-mercaptopropionyl]-2-thienylglycine] | – | –
14 | < 1000 | Cn1cc(C(NC(=O)C(CS)Cc2ccccc2)C(=O)O)cn1 (stereo not drawn) [Example 25, N-[2'-Benzyl-3'-mercaptopropionyl]4-[1-methylisoiinidazolyl]glycine] | – | –
15 | < 1000 | O=C(NC(C(=O)O)c1ccco1)C(CS)Cc1ccccc1 (stereo not drawn) [Example 30, N-[2'-Benzyl-3'-mercaptopropionyl]-2-(2"-furanyl)glycine] | – | –
16 | < 1000 | O=C(N[C@@H](C(=O)O)c1ccccc1)C(CS)CCCCc1ccccc1 (stereo partly drawn) [Example 39, N-[2'-Mercaptomethyl-6'-phenylhexanoyl]-D-phenylglycine] | – | –
17 | < 1000 | O=C(N[C@@H](C(=O)O)c1ccccc1)C(CS)C1CCc2ccccc21 (stereo partly drawn) [Example 41, N-[2'-(Indan-1-yl)-3'-mercaptopropanoyl]-D-phenylglycine] | – | –
18 | < 1000 | O=C(N[C@@H](C(=O)O)c1ccccc1)C(CS)CCOc1ccccc1 (stereo partly drawn) [Example 42, N-[2'-Mercaptomethyl-4'-phenoxybutanoyl]-D-phenylglycine] | – | –
19 | < 1000 | CC(S)C(CCc1ccccc1)C(=O)N[C@@H](C(=O)O)c1ccccc1 (stereo partly drawn) [Example 44, N-[2'-(1"-Mercaptoethyl)-4'-phenylbutanoyl]-D-phenylglycine] | – | –
20 | – | CCC(S)C(Cc1ccccc1)C(=O)N[C@@H](C(=O)O)c1ccccc1 (stereo partly drawn) [Example 49, N-[2-Benzyl-3-mercaptopentanoyl]-D-phenylglycine] | > 128 | –
21 | – | O=C(N[C@@H](C(=O)O)c1ccccc1)C(Cc1ccccc1)C1(S)CC1 (stereo partly drawn) [Example 52, N-[2'-Benzyl-2'-(1"-mercaptocyclopropyl)acetyl]-D-phenylglycine] | > 128 | –
22 | – | C[C@@H](O)[C@H]1C(=O)N2C(C(=O)O)=C(S[C@@H]3CN[C@H](C(=O)N(C)C)C3)[C@H](C)[C@H]12 [meropenem, reference compound] | – | > 128

Row | SMILES | IC50 [1] [nM] | MIC [2, 3] [µg/mL] | MIC ([2]; read-out: MIC (μg/ml) of meropenem alone) [µg/mL]
23 | CC(S)C(Cc1ccccc1)C(=O)N[C@@H](C(=O)O)c1ccccc1 (single isomer, unassigned) [Example 50 (Isomer B), N-[2'-Benzyl-3'-mercaptobutanoyl]-D-phenylglycine] | < 1000 | – | –
24 | CC(S)C(Cc1ccccc1)C(=O)N[C@@H](C(=O)O)c1ccccc1 (single isomer, unassigned) [Example 50 (Isomer C), N-[2'-Benzyl-3'-mercaptobutanoyl]-D-phenylglycine] | < 1000 | – | –
25 | O=C(N[C@@H](C(=O)O)c1ccccc1)[C@@H](CS)CCc1ccccc1 [37f), N-[(S)-2'-Mercaptomethyl-4'-phenylbutanoyl]-D-phenylglycine] | < 1000 | > 128 | –
26 | O=C(N[C@@H](C(=O)O)c1ccccc1)[C@@H](CS)CCCc1ccccc1 [38f), N-[(S)-2'-Mercaptomethyl-5'-phenylpentanoyl]-D-phenylglycine] | < 1000 | > 128 | –
27 | O=C(N[C@@H](C(=O)O)c1ccccc1)C(CS)Cc1ccccc1 (stereo partly drawn) [Example 9k), N-[2'-Benzyl-3'-mercaptopropionyl]-D-phenylglycine] | < 1000 | > 128 | –
28 | O=C(N[C@@H](C(=O)O)c1ccc(O)cc1)C(CS)Cc1ccccc1 (stereo partly drawn) [Example 12, N-[2'-Benzyl-3'-mercaptopropionyl]-4-hydroxy-D-phenylglycine] | < 1000 | > 128 | –
29 | COc1ccc(C(NC(=O)C(CS)Cc2ccccc2)C(=O)O)cc1 (stereo not drawn) [Example 13, N-[2'-Benzyl-3'-mercaptopropionyl]4-methoxyphenylglycine] | < 1000 | > 128 | –
30 | O=C(NC(C(=O)O)c1ccc(O)c([N+](=O)[O-])c1)C(CS)Cc1ccccc1 (stereo not drawn) [Example 14, N-[2'-Benzyl-3'-mercaptopropionyl]-4-hydroxy-3-nitrophenylglycine] | < 1000 | > 128 | –
31 | O=C(NC(C(=O)O)c1ccccc1F)C(CS)Cc1ccccc1 (stereo not drawn) [Example 19, N-[2'-Benzyl-3'-mercaptopropionyl]-2-fluorophenylglycine] | < 1000 | > 128 | –
32 | CC(CS)C(=O)N[C@@H](C(=O)O)c1ccccc1 (stereo partly drawn) [Example 22, N-[2'-Methyl-3'-mercaptopropionyl]-D-phenylglycine] | < 1000 | > 128 | –
33 | CC(C)CC(CS)C(=O)N[C@@H](C(=O)O)c1ccccc1 (stereo partly drawn) [Example 23, N-(4-Methyl-2-mercaptomethylpentanoyl]-D-phenylglycine] | < 1000 | > 128 | –
34 | Cc1ccc(C(NC(=O)C(CS)Cc2ccccc2)C(=O)O)cc1 (stereo not drawn) [Example 24, N-[2'-Benzyl-3'-mercaptopropionyl]-4-methylphenylglycine] | < 1000 | > 128 | –
35 | CC(C)CC(C(=O)N[C@@H](C(=O)O)c1ccccc1)C(C)S (stereo partly drawn) [Example 27, N-[2'-Isobutyl-3'-mercaptobutanoyl]-D phenylglycine] | < 1000 | > 128 | –
36 | O=C(NC(C(=O)O)c1cc2ccccc2s1)C(CS)Cc1ccccc1 (stereo not drawn) [Example 31, N-[2'-Benzyl-3'-mercaptopropionyl]-2-(2"-benzothienyl)glycine] | < 1000 | > 128 | –
37 | O=C(NC(C(=O)O)c1ccoc1)C(CS)Cc1ccccc1 (stereo not drawn) [Example 32, N-[2'-Benzyl-3'-mercaptopropionyl]-2-(3"-furanyl)glycine] | < 1000 | > 128 | –
38 | O=C(NC(C(=O)O)c1ccsc1)C(CS)Cc1ccccc1 (stereo not drawn) [Example 43, N-[2'-Benzyl-3'-mercaptopropionyl]-2-(3"-thienyl)glycine] | < 1000 | > 128 | –
39 | O=C(N[C@@H](C(=O)O)c1ccccc1)C(CS)CCc1ccc(OC(F)F)cc1 (stereo partly drawn) [Example 55, N-[2'-Mercaptomethyl-4'-(4"-difluoromethoxphenyl)butanoyl)-D-phenylglycine] | < 1000 | > 128 | –
